Publication PMC11240139, “Exploring the antitumor potential of novel quinoline derivatives via tubulin polymerization inhibition in breast cancer; design, synthesis and molecular docking” (RSC Advances, 2024)

Experiments:
[1] = system: HL-60(TB) (leukemia); assay: NCI-60 SRB cytotoxicity screen; format: cell-based; settings: Homo sapiens, single dose 10 μM, read-out: growth inhibition (GI%)
[2] = system: RPMI-8226 (leukemia); assay: NCI-60 SRB cytotoxicity screen; format: cell-based; settings: Homo sapiens; RPMI-8226, single dose 10 μM; read-out: growth inhibition (GI%)
[3] = system: SR (leukemia); assay: NCI-60 SRB cytotoxicity screen; format: cell-based; settings: single dose 10 μM, read-out: growth inhibition (GI%)
[4] = system: A549/ATCC (non-small cell lung cancer); assay: NCI-60 SRB cytotoxicity screen; format: cell-based; settings: Homo sapiens, single dose 10 μM, read-out: growth inhibition (GI%)
[5] = system: EKVX (non-small cell lung cancer); assay: NCI-60 SRB cytotoxicity screen; format: cell-based; settings: Homo sapiens, single dose 10 μM, read-out: growth inhibition (GI%)
[6] = system: HOP-62 (non-small cell lung cancer); assay: NCI-60 SRB cytotoxicity screen; format: cell-based; settings: Homo sapiens; HOP-62, single dose 10 μM; read-out: growth inhibition (GI%)
[7] = system: HOP-92 (non-small cell lung cancer); assay: NCI-60 SRB cytotoxicity screen; format: cell-based; settings: Homo sapiens; HOP-92, single dose 10 μM; read-out: growth inhibition (GI%)
[8] = system: NCI-H460 (non-small cell lung cancer); assay: NCI-60 SRB cytotoxicity screen; format: cell-based; settings: Homo sapiens; NCI-H460, single dose 10 μM; read-out: growth inhibition (GI%)
[9] = system: NCI-H522 (non-small cell lung cancer); assay: NCI-60 SRB cytotoxicity screen; format: cell-based; settings: Homo sapiens; NCI-H522, single dose 10 μM; read-out: growth inhibition (GI%)
[10] = system: HCC-2998 (colon cancer); assay: NCI-60 SRB cytotoxicity screen; format: cell-based; settings: Homo sapiens; HCC-2998, single dose 10 μM; read-out: growth inhibition (GI%)
[11] = system: HCT-15 (colon cancer); assay: NCI-60 SRB cytotoxicity screen; format: cell-based; settings: Homo sapiens; HCT-15, single dose 10 μM; read-out: growth inhibition (GI%)
[12] = system: KM12 (colon cancer); assay: NCI-60 SRB cytotoxicity screen; format: cell-based; settings: Homo sapiens; KM12, single dose 10 μM; read-out: growth inhibition (GI%)
[13] = system: SW-620 (colon cancer); assay: NCI-60 SRB cytotoxicity screen; format: cell-based; settings: Homo sapiens; SW-620, single dose 10 μM; read-out: growth inhibition (GI%)
[14] = system: SF-295 (CNS cancer); assay: NCI-60 SRB cytotoxicity screen; format: cell-based; settings: Homo sapiens; SF-295, single dose 10 μM; read-out: growth inhibition (GI%)
[15] = system: MALME-3M (melanoma); assay: NCI-60 SRB cytotoxicity screen; format: cell-based; settings: Homo sapiens, single dose 10 μM, read-out: growth inhibition (GI%)
[16] = system: MDA-MB-435 (melanoma); assay: NCI-60 SRB cytotoxicity screen; format: cell-based; settings: Homo sapiens, MDA-MB-435, read-out: growth inhibition (GI%);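 note: growth inhibition in percent at a single 10 µM dose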
[17] = system: SK-MEL-2 (melanoma); assay: NCI-60 SRB cytotoxicity screen; format: cell-based; settings: Homo sapiens; SK-MEL-2, single dose 10 μM; read-out: growth inhibition (GI%)
[18] = system: SK-MEL-5 (melanoma); assay: NCI-60 SRB cytotoxicity screen; format: cell-based; settings: Homo sapiens; SK-MEL-5, single dose 10 μM; read-out: growth inhibition (GI%)
[19] = system: UACC-257 (melanoma); assay: NCI-60 SRB cytotoxicity screen; format: cell-based; settings: Homo sapiens; UACC-257, single dose 10 μM; read-out: growth inhibition (GI%)
[20] = system: UACC-62 (melanoma); assay: NCI-60 SRB cytotoxicity screen; format: cell-based; settings: Homo sapiens; UACC-62, single dose 10 μM; read-out: growth inhibition (GI%)
[21] = system: OVCAR-4 (ovarian cancer); assay: NCI-60 SRB cytotoxicity screen; format: cell-based; settings: Homo sapiens; OVCAR-4, single dose 10 μM; read-out: growth inhibition (GI%)
[22] = system: SK-OV-3 (ovarian cancer); assay: NCI-60 SRB cytotoxicity screen; format: cell-based; settings: Homo sapiens; SK-OV-3, single dose 10 μM; read-out: growth inhibition (GI%)
[23] = system: 786-0 (renal cancer); assay: NCI-60 SRB cytotoxicity screen; format: cell-based; settings: Homo sapiens; 786-0, single dose 10 μM; read-out: growth inhibition (GI%)
[24] = system: ACHN (renal cancer); assay: NCI-60 SRB cytotoxicity screen; format: cell-based; settings: Homo sapiens, single dose 10 μM, read-out: growth inhibition (GI%)
[25] = system: CAKI-1 (renal cancer); assay: NCI-60 SRB cytotoxicity screen; format: cell-based; settings: Homo sapiens; CAKI-1, single dose 10 μM; read-out: growth inhibition (GI%)
[26] = system: RXF 393 (renal cancer); assay: NCI-60 SRB cytotoxicity screen; format: cell-based; settings: Homo sapiens; RXF 393, single dose 10 μM; read-out: growth inhibition (GI%)
[27] = system: TK-10 (renal cancer); assay: NCI-60 SRB cytotoxicity screen; format: cell-based; settings: Homo sapiens; TK-10, single dose 10 μM; read-out: growth inhibition (GI%)
[28] = system: PC-3 (prostate cancer); assay: NCI-60 SRB cytotoxicity screen; format: cell-based; settings: PC-3, single dose 10 μM; read-out: growth inhibition (GI%)
[29] = system: MCF7 (breast cancer); assay: NCI-60 SRB cytotoxicity screen; format: cell-based; settings: Homo sapiens; MCF7, single dose 10 μM; read-out: growth inhibition (GI%)
[30] = system: BT-549 (breast cancer); assay: NCI-60 SRB cytotoxicity screen; format: cell-based; settings: Homo sapiens; BT-549, single dose 10 μM; read-out: growth inhibition (GI%)

SMILES | inhibition at 10 µM [1] [%] | inhibition at 10 µM [2] [%] | inhibition at 10 µM [3] [%] | inhibition at 10 µM [4] [%] | inhibition at 10 µM [5] [%] | inhibition at 10 µM [6] [%] | inhibition at 10 µM [7] [%] | inhibition at 10 µM [8] [%] | inhibition at 10 µM [9] [%] | inhibition at 10 µM [10] [%] | inhibition at 10 µM [11] [%] | inhibition at 10 µM [12] [%] | inhibition at 10 µM [13] [%] | inhibition at 10 µM [14] [%] | inhibition at 10 µM [15] [%] | inhibition at 10 µM [16] [%] | inhibition at 10 µM [17] [%] | inhibition at 10 µM [18] [%] | inhibition at 10 µM [19] [%] | inhibition at 10 µM [20] [%] | also measured
CCc1cccc2cc(-c3cc(-c4ccc(OC)c(OC)c4)[nH]c(=O)c3C#N)c(Cl)nc12 [Compound 4b, 4-(2-Chloro-8-ethylquinolin-3-yl)-6-(3,4-dimethoxyphenyl)-2-oxo-1,2-dihydropyridine-3-carbonitrile] | < 10 | < 10 | < 10 | < 10 | 14.2 | < 10 | 11.3 | < 10 | 14.7 | < 10 | < 10 | < 10 | < 10 | < 10 | < 10 | < 10 | < 10 | < 10 | < 10 | < 10 | inhibition at 10 µM [21]: 14%; inhibition at 10 µM [22]: < 10%; inhibition at 10 µM [23]: < 10%; inhibition at 10 µM [24]: < 10%; inhibition at 10 µM [25]: 39.2%; inhibition at 10 µM [26]: 33.8%; inhibition at 10 µM [27]: < 10%; inhibition at 10 µM [28]: < 10%; inhibition at 10 µM [29]: 11.3%; inhibition at 10 µM [30]: < 10%; melting point: 280 to 282 °C
CCc1cccc2cc(C=CC(=O)c3cc(OC)c(OC)c(OC)c3)c(Cl)nc12 [Compound 3c, 3-(2-Chloro-8-ethylquinolin-3-yl)-1-(3,4,5-trimethoxyphenyl)prop-2-en-1-one] | 73.5 | 78.2 | 61.5 | 52.1 | 17.1 | < 10 | 26.8 | 18.4 | 80.7 | 63.8 | 44.5 | 80.7 | 65.4 | 31.3 | 14.8 | 59.2 | 44.5 | 39.9 | 43.6 | 41.9 | inhibition at 10 µM [21]: 42%; inhibition at 10 µM [22]: 17.4%; inhibition at 10 µM [23]: 41.7%; inhibition at 10 µM [24]: 32%; inhibition at 10 µM [25]: 38.7%; inhibition at 10 µM [26]: 42.6%; inhibition at 10 µM [27]: < 10%; inhibition at 10 µM [28]: 53.5%; inhibition at 10 µM [29]: 70.9%; inhibition at 10 µM [30]: 76.1%; melting point: 140 to 142 °C
CCc1cccc2cc(C=CC(=O)c3ccc(OC)cc3)c(Cl)nc12 [Compound 3a, 3-(2-Chloro-8-ethylquinolin-3-yl)-1-(4-methoxyphenyl)prop-2-en-1-one] | 45.8 | 22.1 | 38.4 | < 10 | < 10 | < 10 | 27.3 | < 10 | 21.1 | < 10 | < 10 | < 10 | < 10 | < 10 | < 10 | < 10 | < 10 | < 10 | < 10 | 17.1 | inhibition at 10 µM [21]: 13.5%; inhibition at 10 µM [22]: < 10%; inhibition at 10 µM [23]: < 10%; inhibition at 10 µM [24]: < 10%; inhibition at 10 µM [25]: 19.3%; inhibition at 10 µM [26]: 23.8%; inhibition at 10 µM [27]: < 10%; inhibition at 10 µM [28]: < 10%; inhibition at 10 µM [29]: 18%; inhibition at 10 µM [30]: 22.5%; melting point: 138 to 140 °C
